These results are taken from the OPERA property sets (Mansouri et al. 2018).

Molecules are shown by their SMILES. In brackets after ≈: the same amount, converted by molar mass. Where a SMILES comes first, the peptide text is derived from it.

For `CC(=O)N[C@@H](CC(C)C)C(=O)N[C@H](C(=O)N[C@@H](CC(C)C)C(N)=O)[C@@H](C)O` (Ac-Leu-Thr-Leu-NH2), the log partition coefficient (logP) was 0.24. The same measure, in the same setting: the value for `OCCOCCOCCO` was -1.75. The compound `Oc1cccc2ncccc12` yielded a logP of 1.85. On the same count and under the same terms, the value for `O=C1CCC(c2ccc[n+]([O-])c2)N1` (centres undefined) was -1.01. With `CCCCCCCCCCCCCCO`, the log partition coefficient (logP) came out at 6.03.

In turn, `O=C(O)c1ccccc1Nc1cccc(Cl)c1` displayed a logP of 5.43. Still for that read-out and setting: the value for `CC(C)(C)c1cccc(OP(=O)(Oc2ccccc2)Oc2ccccc2)c1` was 5.12. `CC(C)CC=O`: the solubility is 163 mM (≈ 14000 µg/mL).

`O=P(O)(O)CN(CP(=O)(O)O)CP(=O)(O)O`: the logP was -3.53. As to `O=P(OC(Cl)CCCl)(OC(Cl)CCCl)OC(Cl)CCCl` (centres undefined), the solubility is 0.232 mM (≈ 100 µg/mL). Compound `COc1cc(Cl)c(Cl)c(Cl)c1O` yielded a logP of 3.72. The same measure, in the same setting: as for `CC(C)CN(CC(C)C)N=O`, the figure is 2.34. `Brc1ccc(O[Si]23OCCN(CCO2)CCO3)cc1`: the log partition coefficient (logP) was found to be 0.58. Consider `O=c1ccc2cc3ccoc3cc2o1`, for which the logP came to 1.67.

Consider `COc1ccc2oc(N(N)CCC#N)nc2c1`, for which the logP amounted to 0.98. Still for that read-out and setting: the value for `CCCCOC(=O)C(N)Cc1ccc(O)cc1` (centres undefined) was 1.8; that for `Cc1ccc(-c2ccc(C)cc2)cc1` was 5.09.

Regarding `ClC=C1C2CC(C(Cl)C2(Cl)Cl)C1(C(Cl)Cl)C(Cl)Cl` (centres undefined), the logP is 5.49.

Turning to `CN1C(=O)C(O)CC1c1cccnc1` (centres undefined), the lipophilicity (logP) was -1.45. The compound `COC1=CC(=O)C=CC1=O` showed a logP of -0.06.

Regarding `CCOC(=O)c1ccccc1S(=O)(=O)NC(=O)Nc1nc(Cl)cc(OC)n1`, the lipophilicity (logP) amounted to 2.5.

`O=c1c(Cl)c(Cl)cnn1-c1ccccc1` returned a lipophilicity (logP) of 2.09.

For the compound `COC(=O)c1ccccc1S(=O)(=O)NC(=O)Nc1nc(C)cc(C)n1`, the lipophilicity (logP) turned out to be 1.2. In turn, `O=P(N1CCCC1)(N1CCCC1)N1CCCC1` came in with a logP of 1.67. `CCN1CCCC1CNC(=O)c1c(OC)ccc(Br)c1O` (centres undefined) displayed a logP of 2. Take `Cc1cccc(Nc2ccccc2C(=O)O)c1`: the log partition coefficient (logP) was 4.88. On the same count and under the same terms, the value for `COc1ccc2sc(C(=O)Nc3nnn[nH]3)c(OC(C)C)c2c1` was 1.78; that for `Clc1cc(Cl)c(-c2cc(Cl)c(Cl)cc2Cl)cc1Cl` was 6.34; that for `CNc1ncnc2c1ncn2C1OC(CO)CC1F` (centres undefined) was 0.27. Same read-out and setting: the value for `CC(=O)Oc1cc(C(C)C)c(OCCN(C)C)cc1C` was 3.17. On the same count and under the same terms, the value for `Cc1ccccc1NCc1cnc2nc(N)nc(N)c2c1C` was 1.98. On to `Cc1cccc(C(C)C)c1`, for which the solubility came out at 0.317 mM (≈ 42.5 µg/mL). Regarding `CCCCCN(CCCCC)N=O`, the logP came to 3.86.

`CSc1nc(N)nc(C(Cl)(Cl)Cl)n1` came in with a logP of 3.12. The same measure, in the same setting: the value for `CCCCC(O)CCC` (centres undefined) was 2.68; that for `ClC1=C(Cl)C2(Cl)C(Cl)(Cl)C3CC(Cl)C1C3C2(Cl)Cl` (centres undefined) was 6.09. Regarding `CCCCC(NC(Cc1ccccc1)C(=O)N1CCC(OCOC)CC1)C(=O)NC(CC1CCCCC1)C(O)CC(C(=O)NCCNc1n[nH]c(N)n1)C(C)C` (centres undefined), the logP came out at 4.2. Same read-out and setting: the value for `C=COCCn1cnc2[nH]c(=O)n(C)c(=N)c21` was -0.78. Same read-out and setting: as for `CCCCC[C@H](O)/C=C/[C@H]1[C@H](O)CC(=O)[C@@H]1CCCCCCC(=O)O`, the figure is 3.2; as for `N[C@@H](Cc1cnc[nH]1)C(=O)O`, -3.32. `Nc1ccc(S(=O)(=O)O)c(N)c1`: the log partition coefficient (logP) was -4.65. In the case of `CCNC(=O)CNC(=O)c1ccccc1`, the logP worked out at 0.58. Take `O=P(OCCCl)(OCCCl)OCCCl`: the solubility was 24.5 mM (≈ 7000 µg/mL). Compound `Cc1ccc(C)c(NCc2cnc3nc(N)nc(N)c3c2C)c1` registered a logP of 2.29. In the case of `C=CCN(CC=C)CC=C`, the solubility was determined as 18.2 mM (≈ 2500 µg/mL). For the compound `CNC(=O)CCc1c[nH]c2ccccc12`, the log partition coefficient (logP) is 1.23. Turning to `Nc1ccc2c(c1)Cc1cc(Br)ccc1-2`, the log partition coefficient (logP) stood at 3.92. In turn, `CC1(CCl)C2CC(Cl)(Cl)C1(C(Cl)Cl)CC2(Cl)Cl` (centres undefined) gave a log partition coefficient (logP) of 5.49. On the same count and under the same terms, the value for `Nc1ccc2c(c1)Cc1cc([N+](=O)[O-])ccc1-2` was 3.06. Still for that read-out and setting: as for `O=C(OCn1ncc2c(=O)[nH]cnc21)c1ccccc1`, the figure is 1.5. The same measure, in the same setting: the value for `OC(CNC1CCCCC1Br)Cn1ccnc1` (centres undefined) was 1.21. In turn, `Cc1cc(Cl)ccc1OCC(=O)OCCCCCC(C)C` yielded a lipophilicity (logP) of 6.7.

`COc1cc(Cl)c(Cl)c(Cl)c1` gave a lipophilicity (logP) of 4.22. Same read-out and setting: as for `Cn1cnc([N+](=O)[O-])c1I`, the figure is 1; as for `c1ccc2c(c1)-c1cccc3c1c-2cc1ccccc13`, 5.78. The compound `COC(=O)c1cc2ccccc2[nH]1` yielded a log partition coefficient (logP) of 2.45.

As to `CC(NC(CCc1ccccc1)C(=O)O)C(=O)N1C(C(=O)O)CC2CCCC21` (centres undefined), the logP was 0.22. On to `Cc1ccccc1C1=CCN(C)CC1`, for which the log partition coefficient (logP) was determined as 3.1.

Compound `Cc1nc(N)nc(C(Cl)(Cl)Cl)n1` returned a logP of 1.77.

`CN(CCO)C(=O)COC(=O)c1ccccc1O` returned a logP of 0.86. `CNC(=O)Oc1cccc2c1OC(C)(C)C2` came in with a solubility of 1.45 mM (≈ 320 µg/mL).

As for `COc1ncnc2c1ncn2C1OC(COC(=O)c2ccccc2)C(O)C1OC(=O)c1ccccc1` (centres undefined), the logP worked out at 3.39. Consider `CCOC(=O)C1=C(COCCN)NC(C)=C(C(=O)OC)C1c1ccccc1Cl` (centres undefined), for which the logP is 3. `CCCCCCOC(=O)c1cccnc1` came in with a logP of 3.51.

For orientation: logP means the decadic logarithm of the partition coefficient of the neutral form, usually between octanol and water. The term solubility denotes the concentration that dissolves in the medium under given conditions. Lower therefore signals a poorly soluble substance.
